Measured values: ChEMBL document CHEMBL2331144, “Synthesis and anticancer activity of analogues of phenstatin, with a phenothiazine A-ring, as a new class of microtubule-targeting agents” (Bioorg Med Chem Lett, 2013)

Assays:
PC-3 = assay: Growth inhibition of human PC3 cells at 10 uM after 48 hrs by sulforhodamine B assay; assay type: functional; settings: PC-3, 48 h, read-out: GI
MDA-MB-435 = assay: Growth inhibition of human MDA-MB-435 cells at 10 uM after 48 hrs by sulforhodamine B assay; assay type: functional; settings: MDA-MB-435, 48 h, read-out: GI
MDA-MB-468 = assay: Growth inhibition of human MDA-MB-468 cells at 10 uM after 48 hrs by sulforhodamine B assay; assay type: functional; settings: MDA-MB-468, 48 h, read-out: GI
RXF 393 = assay: Growth inhibition of human RXF393 cells at 10 uM after 48 hrs by sulforhodamine B assay; assay type: functional; settings: RXF 393, 48 h, read-out: GI
HCT-15 = assay: Growth inhibition of human HCT15 cells at 10 uM after 48 hrs by sulforhodamine B assay; assay type: functional; settings: HCT-15, 48 h, read-out: GI
Ovis aries = species on record: Ovis aries; assay: Inhibition of sheep brain tubulin polymerization at 100 uM using DAPI by fluorimetry
CAKI-1 = assay: Growth inhibition of human CAKI-1 cells at 10 uM after 48 hrs by sulforhodamine B assay; assay type: functional; settings: CAKI-1, 48 h, read-out: GI
T47D = assay: Growth inhibition of human T47D cells at 10 uM after 48 hrs by sulforhodamine B assay; assay type: functional; settings: read-out: GI
HCT-116 = assay: Growth inhibition of human HCT116 cells at 10 uM after 48 hrs by sulforhodamine B assay; assay type: functional; settings: HCT-116, 48 h, read-out: GI
MDA-MB-231 = assay: Growth inhibition of human MDA-MB-231 cells at 10 uM after 48 hrs by sulforhodamine B assay; assay type: functional; settings: MDA-MB-231, 48 h, read-out: GI
HOP-62 = assay: Growth inhibition of human HOP62 cells at 10 uM after 48 hrs by sulforhodamine B assay; assay type: functional; settings: HOP-62, 48 h, read-out: GI
LOX IMVI = assay: Growth inhibition of human LOXIMVI cells at 10 uM after 48 hrs by sulforhodamine B assay; assay type: functional; settings: read-out: GI
KM12 = assay: Growth inhibition of human KM12 cells at 10 uM after 48 hrs by sulforhodamine B assay; assay type: functional; settings: KM12, 48 h, read-out: GI
NCI-H522 = assay: Growth inhibition of human NCI-H522 cells at 10 uM after 48 hrs by sulforhodamine B assay; assay type: functional; settings: NCI-H522, 48 h, read-out: GI
RPMI-8226 = assay: Growth inhibition of human RPMI8226 cells at 10 uM after 48 hrs by sulforhodamine B assay; assay type: functional; settings: RPMI-8226, 48 h, read-out: GI
SF-295 = assay: Growth inhibition of human SF295 cells at 10 uM after 48 hrs by sulforhodamine B assay; assay type: functional; settings: SF-295, 48 h, read-out: GI
MCF7 = assay: Growth inhibition of human MCF7 cells at 10 uM after 48 hrs by sulforhodamine B assay; assay type: functional; settings: MCF7, 48 h, read-out: GI
OVCAR-4 = assay: Growth inhibition of human OVCAR4 cells at 10 uM after 48 hrs by sulforhodamine B assay; assay type: functional; settings: OVCAR-4, 48 h, read-out: GI
[1] = Growth inhibition of human NCI-ADR-RES cells at 10 uM after 48 hrs by sulforhodamine B assay; assay type: functional; settings: read-out: GI
UACC-62 = assay: Growth inhibition of human UACC62 cells at 10 uM after 48 hrs by sulforhodamine B assay; assay type: functional; settings: UACC-62, 48 h, read-out: GI
786-0 = assay: Growth inhibition of human 786-0 cells at 10 uM after 48 hrs by sulforhodamine B assay; assay type: functional; settings: 786-0, 48 h, read-out: GI
CCRF-CEM = assay: Growth inhibition of human CCRF-CEM cells at 10 uM after 48 hrs by sulforhodamine B assay; assay type: functional; settings: read-out: GI
SK-MEL-5 = assay: Growth inhibition of human SK-MEL-5 cells at 10 uM after 48 hrs by sulforhodamine B assay; assay type: functional; settings: SK-MEL-5, 48 h, read-out: GI
SNB-75 = assay: Growth inhibition of human SNB75 cells at 10 uM after 48 hrs by sulforhodamine B assay; assay type: functional; settings: SNB-75, 48 h, read-out: GI
K562 = assay: Growth inhibition of human K562 cells at 10 uM after 48 hrs by sulforhodamine B assay; assay type: functional; settings: K562, 48 h, read-out: GI
COLO 205 = assay: Growth inhibition of human COLO205 cells at 10 uM after 48 hrs by sulforhodamine B assay; assay type: functional; settings: COLO 205, 48 h, read-out: GI
Malme-3M = assay: Growth inhibition of human MALME-3M cells at 10 uM after 48 hrs by sulforhodamine B assay; assay type: functional; settings: read-out: GI
MOLT-4 = assay: Growth inhibition of human MOLT4 cells at 10 uM after 48 hrs by sulforhodamine B assay; assay type: functional; settings: MOLT-4, 48 h, read-out: GI
UO-31 = assay: Growth inhibition of human UO31 cells at 10 uM after 48 hrs by sulforhodamine B assay; assay type: functional; settings: UO-31, 48 h, read-out: GI
HL-60(TB) = assay: Growth inhibition of human HL-60(TB) cells at 10 uM after 48 hrs by sulforhodamine B assay; assay type: functional; settings: HL-60, 48 h, read-out: GI
HOP-92 = assay: Growth inhibition of human HOP92 cells at 10 uM after 48 hrs by sulforhodamine B assay; assay type: functional; settings: HOP-92, 48 h, read-out: GI

`O=C(c1cnc2ccccn12)N1c2ccccc2Sc2ccccc21` gave an inhibition of growth at 10 µM (PC-3) of 45.1%, an inhibition of growth at 10 µM (MDA-MB-435) of 6.7% and an inhibition of growth at 10 µM (MDA-MB-468) of 7.3%. The inhibition of growth at 10 µM (RXF 393) was 0%, the inhibition of growth at 10 µM (HCT-15) was 17.3% and the inhibition (Ovis aries) was 38%. It also gave an inhibition of growth at 10 µM (CAKI-1) of 5.9%, an inhibition of growth at 10 µM (T47D) of 19.2% and an inhibition of growth at 10 µM (HCT-116) of 17.8%. It also gave an inhibition of growth at 10 µM (MDA-MB-231) of 7.4%, an inhibition of growth at 10 µM (HOP-62) of 3.4% and an inhibition of growth at 10 µM (LOX IMVI) of 12%. For the same compound, the inhibition of growth at 10 µM (KM12) was 14%, the inhibition of growth at 10 µM (NCI-H522) was 6.6% and the inhibition of growth at 10 µM (RPMI-8226) was 36%. The inhibition of growth at 10 µM (SF-295) was 16%, the inhibition of growth at 10 µM (MCF7) was 4.6% and the inhibition of growth at 10 µM (OVCAR-4) was 0%. For the same compound, the inhibition of growth at 10 µM [1] was 12.8%, the inhibition of growth at 10 µM (UACC-62) was 39.3% and the inhibition of growth at 10 µM (786-0) was 5.3%. For the same compound, the inhibition of growth at 10 µM (CCRF-CEM) was 3.1%, the inhibition of growth at 10 µM (SK-MEL-5) was 14.6% and the inhibition of growth at 10 µM (SNB-75) was 0%. It also gave an inhibition of growth at 10 µM (K562) of 2.3%, an inhibition of growth at 10 µM (COLO 205) of 19.1% and an inhibition of growth at 10 µM (Malme-3M) of 2%. It also gave an inhibition of growth at 10 µM (MOLT-4) of 0%, an inhibition of growth at 10 µM (UO-31) of 0% and an inhibition of growth at 10 µM (HL-60(TB)) of 38.1%. It also gave an inhibition of growth at 10 µM (HOP-92) of 33.8%.
